{"source": "patent US8030283B2", "about": "“Stabilization of amrubicin hydrochloride” (Dainippon Sumitomo Pharma Co., Ltd., priority 2001, dated 2011)", "experiment": "Storage stability of amrubicin hydrochloride compositions: rates of by-product generation of degradation products", "type": "physicochemical", "method": "Various compositions of amrubicin hydrochloride composed of about 91 to about 98% by weight of amrubicin hydrochloride and about 2 to about 9% by weight of water were prepared by exposing dried amrubicin hydrochloride to air whose relative humidity was adjusted (0 to 95%).\nThe thus-prepared amrubicin hydrochloride compositions having water contents of about 2 to about 9% by weight were stored at 30° C. and investigated rates of by-product generation of the degradation products, i.e., the desaccharification and deamination products.\nThe relative humidity was adjusted by reference to “Kobunshi Jikken-gaku Koza (Polymer Experiment Course) 5, Kobunshi no Bussei (Physical Properties of Polymers), 100-107 pages (Kyoritsu Shuppan Kabushiki Kaisha)”.", "key": {"[1]": {"details": "according to the decrease in water content"}, "[2]": {"details": "according to the increase in water content"}}}
{"compound": "CC(=O)[C@]1(N)Cc2c(O)c3c(c(O)c2[C@@H](O[C@H]2C[C@H](O)[C@H](O)CO2)C1)C(=O)c1ccccc1C3=O.Cl", "note": "[amrubicin hydrochloride, (7S,9S)-9-Acetyl-9-amino-7-[(2-deoxy-β-D-erythro-pentapyranosyl)oxy]-7,8,9,10-tetrahydro-6,11-dihydroxy-5,12-nephthacenedione hydrochloride]", "values": [{"measurement": "by-product generation rate of the deamination product", "setting": "[1]", "result": "decreased"}, {"measurement": "by-product generation rate of the desaccharification product", "setting": "[1]", "result": "increased"}, {"measurement": "by-product generation rate of the deamination product", "setting": "[2]", "result": "increased"}, {"measurement": "by-product generation rate of the desaccharification product", "setting": "[2]", "result": "decreased"}, {"measurement": "by-product generation of both desaccharification and deamination products", "setting": "stored at 30° C. under an atmosphere at 5 to 90% relative humidity (FIG. 1)", "result": "can be suppressed"}, {"measurement": "by-product generation of both desaccharification and deamination products", "setting": "stored at 30° C., water content in composition controlled at 3 to 8% by weight (FIG. 2)", "result": "can be suppressed"}]}
